According to ChEMBL document CHEMBL1141454, “Structural and functional basis of cyclooxygenase inhibition” (J Med Chem, 2007):

Experiments:
[1] = biological target: T1, Prostaglandin G/H synthase 2 (Homo sapiens, UniProt P35354)
T1 sequence (P35354 whole entry): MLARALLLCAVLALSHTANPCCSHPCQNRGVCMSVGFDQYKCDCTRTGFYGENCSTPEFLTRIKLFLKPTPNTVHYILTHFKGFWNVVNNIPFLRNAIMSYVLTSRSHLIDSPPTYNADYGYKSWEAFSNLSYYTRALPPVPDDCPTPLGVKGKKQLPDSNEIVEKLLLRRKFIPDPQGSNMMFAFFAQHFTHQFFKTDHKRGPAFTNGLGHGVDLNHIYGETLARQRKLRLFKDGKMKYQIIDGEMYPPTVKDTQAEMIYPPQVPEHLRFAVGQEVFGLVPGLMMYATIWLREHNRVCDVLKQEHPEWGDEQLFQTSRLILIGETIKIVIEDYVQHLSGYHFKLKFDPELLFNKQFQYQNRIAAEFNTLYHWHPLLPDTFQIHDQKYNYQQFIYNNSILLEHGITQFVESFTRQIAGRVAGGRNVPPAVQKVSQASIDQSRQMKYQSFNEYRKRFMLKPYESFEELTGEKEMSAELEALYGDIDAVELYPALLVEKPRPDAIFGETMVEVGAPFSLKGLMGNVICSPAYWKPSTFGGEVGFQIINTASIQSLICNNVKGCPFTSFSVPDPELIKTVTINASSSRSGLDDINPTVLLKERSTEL

[2] = biological target: Prostaglandin G/H synthase 1 (Homo sapiens, UniProt P23219)
[3] = Inhibition of mouse COX2 S530A mutant
[4] = Inhibition of mouse COX2 R120A mutant
[5] = Inhibition of mouse COX2 Y355F mutant
[6] = Selectivity for COX1 over COX2
[7] = Inhibition of cyclooxygenase
Mus musculus [8] = organism: Mus musculus; assay: Inhibition of mouse COX2 V349L mutant
Mus musculus [9] = organism: Mus musculus; assay: Inhibition of mouse COX2 V349A mutant

Chain of Prostaglandin G/H synthase 1 (P23219 whole entry): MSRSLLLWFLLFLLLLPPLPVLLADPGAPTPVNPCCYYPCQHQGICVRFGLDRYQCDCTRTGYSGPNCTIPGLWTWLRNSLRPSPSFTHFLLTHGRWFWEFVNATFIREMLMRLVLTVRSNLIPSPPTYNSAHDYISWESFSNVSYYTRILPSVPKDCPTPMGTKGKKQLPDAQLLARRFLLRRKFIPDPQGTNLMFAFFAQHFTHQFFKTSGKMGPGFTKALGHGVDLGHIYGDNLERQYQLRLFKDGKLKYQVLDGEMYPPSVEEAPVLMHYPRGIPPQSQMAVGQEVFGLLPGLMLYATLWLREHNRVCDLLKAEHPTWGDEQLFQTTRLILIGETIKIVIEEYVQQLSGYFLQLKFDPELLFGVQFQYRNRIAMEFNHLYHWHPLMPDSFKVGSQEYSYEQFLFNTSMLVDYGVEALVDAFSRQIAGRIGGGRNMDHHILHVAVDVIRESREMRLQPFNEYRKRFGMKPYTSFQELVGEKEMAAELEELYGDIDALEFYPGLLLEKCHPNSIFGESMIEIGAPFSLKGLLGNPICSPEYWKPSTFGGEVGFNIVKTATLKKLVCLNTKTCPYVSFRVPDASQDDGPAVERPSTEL

| Compound | IC50 [1] | IC50 [2] | other results |
| --- | --- | --- | --- |
| C/C(=N/OCc1ccccc1Nc1c(Cl)cccc1Cl)C(=O)O | 100 nM | > 1 µM |  |
| COc1ccc2c(c1)c(CC(=O)NCCc1ccccc1)c(C)n2C(=O)c1ccc(Cl)cc1 |  | > 66 µM |  |
| O=C(O)Cc1ccccc1Nc1c(Cl)cccc1Cl [DICLOFENAC] |  |  | IC50 [3]: > 50 µM; IC50 [4]: 257 nM; IC50 [5]: 137 nM |
| CC(=O)Oc1ccccc1C(=O)O [ASPIRIN] |  |  | Selectivity ratio [6]: 10; Ki [7]: 20 mM |
| CCOc1cccc(OCC)c1-c1ccc(C(C)C(=O)O)cc1F (configuration not stated) | 100 nM | 7.7 µM |  |
| COc1ccc2c(c1)c(CC(=O)O)c(C)n2C(=O)c1ccc(Cl)cc1 |  |  | Activity (Mus musculus [8]): 4 µM; Activity (Mus musculus [9]): 0.08 µM |
| Cc1ccc(Nc2c(F)cccc2Cl)c(CC(=O)O)c1 [LUMIRACOXIB] | 7 nM | > 10 µM |  |
| COc1ccc2c(c1)c(CCOC(=O)c1ccc(Cl)cc1)c(C)n2Cc1ccc(Br)cc1 |  | > 66 µM |  |
| COc1ccc2c(c1)c(CC(=O)OCCc1ccccc1)c(C)n2C(=O)c1ccc(Cl)cc1 |  | > 66 µM |  |
| COc1ccc2c(c1)c(CCNC(=O)c1ccc(Cl)cc1)c(C)n2Cc1ccc(Br)cc1 |  | > 66 µM |  |
